In patent publication US5863905A, “2',5'-phosphorothioate/phosphodiester oligoadenylates and anti-viral uses thereof” (Temple University-Of The Commonwealth System of Higher …, priority 1997, dated 1999):
“Also recorded” adds a separate entry of the source.

Experiments:
[1] = tested on: 2-5A synthetase/RNase L pathway; HHV-6; conditions: CFS patients, cited from earlier work
HIV-1 strain IIIB = assay: Inhibition of HIV-1-induced syncytia formation (infected centers assay); type: cell-based; conditions: 3×10^-4 M; PBL infected with HIV-1 IIIB, Sup T1 cells, read at 72 h
Source text: FIG. 5A represents the results of an assay performed according to the method of Henderson et al., Virology 182: 186-198 (1991), indicating the inhibition of HIV-1 (IIIB)-induced syncytia formation by adenosine, 2-5A trimer or tetramer core or 2',5'- phosphorothioate/phosphodiester trimer derivatives: ARp *ApA, ASp *ApA, ApARp *A, ApASp *A, ARp *ApApA, ASp *ApApA, ApARp *ApA, ApASp *ApA, ApApARp *A, ApApASp *A.
FIG. 5B is the results of an assay performed according to the method of FIG. 5A with a 2',5'-phosphorothioate/phosphodiester tetramer derivative of 2-5A core.
The infected centers assay as described by Henderson et al., Virology 182: 186-198 (1991), was used to measure the ability of the phosphorothioate/phosphodiester derivatives of 2-5A trimer and tetramer cores to inhibit HIV-1 induced syncytia formation, an indicator of HIV-1 replication in T cells. Freshly isolated peripheral blood lymphocytes (PBL) were treated with 2-5A or derivatives for 2 h and infected with HIV-1 strain IIIB at a m.o.i. of approximately 0.1. The infected PEL were maintained in RPMI-1640 medium supplemented with 10% (v/v) heat-inactivated fetal calf serum at 37° C. in a humidified 5% CO2 in air atmosphere. After 48 h, the cells were washed twice in Hank's balaned salt solution, serially diluted and seeded into multiple wells of a 96-well microtiter plate. Immediately, 2×10^5 exponentially growing Sup T1 cells were added to each well; Sup T1 cells readily form a syncytium with a cell which is productively infected with HIV-1. The wells were examined daily for the presence of syncytia, using a tissue culture microscope. The first signs of syncytia formation can be seen in 12 h, with some complete syncytia developing by 24 h. Final results were read at 72 h. Each syncytium was counted as a single infected cell. The number of syncytia per seeded cell is determined and expressed as an infected center per infected cell. In the control (no 2-5A derivative added), 100% syncytia formation was equivalent to 12±3 syncytia per 200 HIV-1 infected cells.

serum phosphodiesterases = assay: Stability of 2-5A core derivatives to serum phosphodiesterase; type: in vitro ADME, fetal calf; conditions: 300 μM, 37° C.; for Hydrolysis Products: 10% fetal calf serum, 6 h, identified by HPLC; for % Hydrolysis: RPMI-1640 + 10% fetal calf serum, 6 h (A2, A3: 20 min)
Protocol: The stability of authentic 2-5A and phosphorothioate/phosphodiester trimer and tetramer core derivatives (300 μM) was determined by incubation in 200 μL of RPMI-1640 medium supplemented with 10% fetal calf serum in 5% CO2 -in-air at 37° C. Aliquots (30 μL) were removed at time zero and 6 hours. The hydrolysis products were identified by HPLC as described in Kariko et al. , Biochemistry 26: 7127-7135 (1987).
No hydrolysis of the phosphorothioate/phosphodiester trimer core derivatives was observed. However, the phosphorothioate/phosphodiester tetramer core derivatives were hydrolyzed from the 5'- or 2',3'-terminus, depending on the location of the phosphorothioate-substituted internucleotide linkage.

[2] = tested on: HIV-1 reverse transcriptase; assay: HIV-1 reverse transcriptase activity in culture supernatant of infected Sup T1 cells; type: cell-based; conditions: 300 μM (adenosine and adenine 900 μM), 6 h pre-treatment, 96 h post-infection; average of triplicates
Protocol: Sup T1 cells were treated with 2-5A or a phosphorothioate/phosphodiester derivative at 300 μM for 6 hours and then infected with HIV-1 at a multiplicity of infection (M.O.I) of approximately 0.1. Adenosine and adenine were tested at 900 μM. At 96 hours post-infection, culture supernatant was removed and HIV-1 RT activity was assayed in triplicate as described by Henderson et al., Virology 182:186-198 (1991). Briefly in this method, 25 μl of culture supernatant was added to a 50 μl cocktail containing 50 mM Tris (pH 8.0), 20 mM dithiothreitol, 10 mM MgCl2, 60 mM NaCl, 0.05 Nonidet p-40, 5 μg/ml oligodeoxythymidylic acid, 10 μg/ml polyriboadenylic acid, 10 μM deoxythymidine triphosphate and 1 mCi [^32 p]thymidine 5'-triphosphate. The mixture was incubated at 37° C. for 2 hours. Fifty microliters of the cocktail were then spotted onto diethylaminoethyl (DEAE) paper, dried, washed with 2× SSC solution (three times for 10 minutes each time) and 95% ethanol (two times for 5 minutes each time), dried and exposed to radiographic film for 18 to 24 hours at -80° C. The filters were cut and final quantitation was determined by scintillation spectrometry.

RNase L = assay: rRNA cleavage assay in L929 cell extracts (activation of RNase L); type: biochemical; conditions: 1 h at 30° C., > = no activation up to this concentration
Protocol: FIG. 2A represents the results of a ribosomal RNA cleavage assay with 2',5'-phosphorothioate/phosphodiester trimer core 2-5A derivatives. The procedure was performed according to the method of Kariko et al., Biochemistry 26: 7127-7135 (1987). 2-5A oligomer (phosphodiester internucleotide linkage) is also included for comparison. L929 cell extracts were incubated in the absence (lane 1) or presence of p3 A3 at 10^-8 M (lane 2), ARp *ApA at 10^-6 M (lane 3), ASp *ApA at 10^-6 M (lane 4), ApARp *A at 10^-6 M (lane 5), ApASp *A at 10^-6 M (lane 6) or A3 at 10^-6 M (lane 7). The positions of 28S and 18S rRNA are shown; the arrows indicate the positions of the well-characterized specific cleavage products (SCP) of RNase L.
FIG. 2B represents the results of a ribosomal RNA cleavage assay performed according to the method of FIG. 2A with 2',5'-phosphorothioate/phosphodiester trimer 5'-monophosphate derivatives. L929 cell extracts were incubated in the absence (lane 1) or presence of p3 A3 at 2×10^-9 M (lane 2), pA3 at 10^-6 M (lane 3), pARp *ApA at 10^-7 M (lane 4), pASp *ApA at 10^-7 M (lane 5), pApARp *A at 2×10^-9 M (Lane 6), pApASp *A at 10^-7 M (lane 7).
FIG. 3A represents the results of a ribosomal RNA cleavage assay performed according to the method of FIG. 2A with 2',5'-phosphorothioate/phosphodiester tetramer core 2-5A derivatives. 2-5A oligomer (phosphodiester internucleotide linkage) is also included for comparison. L929 cell extracts were incubated in the absence (lane 1) or presence of p3 A4 at 10^-8 M (lane 2), A4 at 10^-5 M (lane 3), ARp *ApApA at 10^-5 M (lane 4), ASp *ApApA at 10^-5 M (lane 5), ApARp *ApA at 10^-5 M (lane 6), ApASp *ApA at 10^-5 M (lane 7), ApApARp *A at 10^-5 M (lane 8) or ApApASp *A at 10^-5 M (lane 9).
FIG. 3B represents the results of a ribosomal RNA cleavage assay performed according to the method of FIG. 2A with 2',5'-phosphorothioate/phosphodiester tetramer 5'-monophosphate derivatives. L929 cell extracts were incubated in the absence (lane 1) or presence of p3 A4 at 10^-8 M (lane 2), pA4 at 10^-6 M (lane 3), pARp *ApApA at 10^-6 M (lane 4), pASp *ApApA at 10^-6 M (lane 5), pApARp *ApA at 10^-8 M (lane 6), pApASp *ApA at 10^-5 M (lane 7), pApApARp *A at 10^-7 M (lane 8) or pApApASp *A at 10^-7 M (lane 9).
Activation of RNase L by the phosphorothioate/phosphodiester trimer and tetramer 2-5A derivatives was also measured in a rRNA cleavage assay using L929 cell extracts according to the method of Kariko et al. (1987), supra, in which extracts of L929 cells were incubated for 1 h at 30° C. in the presence or absence of 2-5A or 2-5A derivative. […] Authentic p3 A3 was active at 1×10^-8 M (FIG. 2A, lane 2). The corresponding 5'-monophosphates, pARp *ApA, pASp *ApA and pApARp *A, activated at 1×10^-7 M, 1×10^-7 M, and 2×10^-9 M, respectively (FIG. 2B, lanes 4-6), as compared with pA3 which was active at 1×10^-6 M (lane 3).

Substance: poly (I)-poly (C12 U)
- HHV-6 activity following therapy ([1]; p<0.01): significant decrease in HHV-6 activity
- mean basal latent 2-5A synthetase level in PBMC extracts following therapy ([1]; controls 2035±325, P<0.001): 610±220 picomoles 2-5A/mg protein/hour
- 2-5A synthetase/RNase L pathway following therapy ([1]; in temporal association with clinical and neuropsychological improvement): down regulation of the 2-5A synthetase/RNase L pathway

Substance: Adenylyl-(2',5')-(PR) -P-thioadenylyl-(2',5')-adenylyl-(2',5')-adenosine [ApARp *ApA]
- inhibition of HIV-1-induced syncytia formation (HIV-1 strain IIIB): 26%
- Hydrolysis Products (serum phosphodiesterases): inosine, hypoxanthine; also recorded: ARp *ApA
- % Hydrolysis (serum phosphodiesterases): 50%
- Percent Inhibition of HIV-1 Reverse Transcriptase [2]: 52%
- concentration at which RNase L is activated to cleave rRNA to SCP (RNase L): 10 µM

Substance: (PS)-P-thioadenylyl-(2',5')-adenylyl-(2',5')-adenosine [ASp *ApA]
- inhibition of HIV-1-induced syncytia formation (HIV-1 strain IIIB): 15%
- Hydrolysis Products (serum phosphodiesterases): not hydrolyzed
- % Hydrolysis (serum phosphodiesterases): 0%
- Percent Inhibition of HIV-1 Reverse Transcriptase [2]: 56%
- concentration at which RNase L is activated to cleave rRNA to SCP (RNase L): > 1 µM
